Experimental data taken from PMC3501516, “Anti-Diabetic Efficacy and Impact on Amino Acid Metabolism of GRA1, a Novel Small-Molecule Glucagon Receptor Antagonist” (PLoS ONE, 2012).
Like-named read-outs stand apart in the source and are kept apart here.

Experiments:
[1] = target: T1, GIPR (glucose-dependent insulinotropic peptide receptor) (Homo sapiens, UniProt P48546); test: Inhibition of GIP-stimulated cAMP production in CHO cells expressing GIPR; type: cell-based
T1 sequence (P48546 22-466): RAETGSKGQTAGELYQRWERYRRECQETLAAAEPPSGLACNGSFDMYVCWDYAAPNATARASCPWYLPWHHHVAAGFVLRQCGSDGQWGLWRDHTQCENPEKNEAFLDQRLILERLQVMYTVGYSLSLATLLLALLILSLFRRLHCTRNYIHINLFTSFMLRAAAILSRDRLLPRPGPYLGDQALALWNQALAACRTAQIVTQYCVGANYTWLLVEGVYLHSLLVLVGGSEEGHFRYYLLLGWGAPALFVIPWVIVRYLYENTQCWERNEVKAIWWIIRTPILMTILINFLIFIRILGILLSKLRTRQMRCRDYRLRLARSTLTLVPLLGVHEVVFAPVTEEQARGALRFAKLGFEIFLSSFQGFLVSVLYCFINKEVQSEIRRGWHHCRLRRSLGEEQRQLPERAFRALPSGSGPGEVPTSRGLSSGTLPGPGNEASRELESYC
Experimental: Transfected Chinese hamster ovary (CHO) cell lines were acquired and maintained as previously described [17], [20]. These included separate cell lines stably expressing human GCGR (hGCGR), mouse GCGR, rhesus GGCR, glucose-dependent insulinotropic peptide receptor (GIPR), GLP-1 receptor (GLP-1R), pituitary adenylate cyclase-activating polypeptide receptor type 1 (PAC1R), and vasoactive adenylate cyclase-activating polypeptide receptor type 2 (VPAC2R). […] Functional antagonism was assayed by measuring the production of cAMP in intact CHO cells stimulated by agonists specific for their cognate receptors (i.e., glucagon for GCGR-expressing cell lines, GIP for the GIPR-expressing line, etc.).

GLP-1R (GLP-1 receptor) = target: T2, GLP-1R (GLP-1 receptor) (Homo sapiens, UniProt P43220); test: Inhibition of GLP-1-stimulated cAMP production in CHO cells expressing GLP-1R; type: cell-based; settings: human GLP-1R
T2 construct: expressed in transfected cells
T2 sequence (P43220 24-463): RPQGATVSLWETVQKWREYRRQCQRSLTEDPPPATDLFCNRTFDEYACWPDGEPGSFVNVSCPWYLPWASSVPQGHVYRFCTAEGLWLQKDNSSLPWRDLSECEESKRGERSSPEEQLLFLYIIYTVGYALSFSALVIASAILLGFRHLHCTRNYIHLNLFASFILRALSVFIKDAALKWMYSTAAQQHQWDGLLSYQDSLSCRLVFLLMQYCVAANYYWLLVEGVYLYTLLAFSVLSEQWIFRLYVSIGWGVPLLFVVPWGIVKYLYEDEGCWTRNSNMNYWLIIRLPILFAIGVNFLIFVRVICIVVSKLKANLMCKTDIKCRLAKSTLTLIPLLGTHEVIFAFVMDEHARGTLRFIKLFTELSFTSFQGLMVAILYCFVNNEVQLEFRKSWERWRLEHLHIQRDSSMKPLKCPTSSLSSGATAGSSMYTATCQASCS
From the text: Transfected Chinese hamster ovary (CHO) cell lines were acquired and maintained as previously described, [20]. These included separate cell lines stably expressing human GCGR (hGCGR), mouse GCGR, rhesus GGCR, glucose-dependent insulinotropic peptide receptor (GIPR), GLP-1 receptor (GLP-1R), pituitary adenylate cyclase-activating polypeptide receptor type 1 (PAC1R), and vasoactive adenylate cyclase-activating polypeptide receptor type 2 (VPAC2R). Inhibition of glucagon binding to hGCGR was assayed in cell membranes prepared from the line of CHO cells that expressed the hGCGR. Functional antagonism was assayed by measuring the production of cAMP in intact CHO cells stimulated by agonists specific for their cognate receptors (i.e., glucagon for GCGR-expressing cell lines, GIP for the GIPR-expressing line, etc.). Primary human hepatocytes were obtained from In Vitro Technologies (Baltimore, MD) and glucagon-stimulated glycogenolysis was studied in these as previously described.

[2] = tested on: perfused liver from hGCGR mice; test: Glucagon-stimulated glycogenolysis in perfused liver from hGCGR mouse (13C NMR); settings: 50 pM glucagon
Experimental: Livers were perfused with Ringers solution containing 6.7 mM [2-^13C]pyruvate while ^13C content (indicative of accumulated [^13C]glycogen) was monitored dynamically by nuclear magnetic resonance imaging. At time = −22 min, 0.1–3.0 uM GRA1 or vehicle was added to the perfusate; 50 pM glucagon or vehicle was added at time 0. The data are means ±SEM.
Glycogen content of perfused hGCGR mouse liver was measured as previously described [30]. In brief, livers were perfused ex vivo with Ringers solution containing 6.7 mM [2-^13C]pyruvate while ^13C content (indicative of accumulated [^13C]glycogen) was monitored dynamically by nuclear magnetic resonance imaging.

[3] = Pharmacokinetics / plasma GRA1 concentrations in rhesus monkeys; type: in vivo, rhesus monkey
rhesus monkeys = test: Fasted plasma glucagon, glucose and amino acids in rhesus monkeys dosed 14 days; type: in vivo, rhesus monkey
Experimental: In a follow-up experiment, adult rhesus monkeys were dosed once daily for 14 days with 30 mg/kg GRA1 or vehicle (0.5% methylcellulose plus 0.02% sodium dodecyl sulfate in 2 mL/kg water) delivered by oral gavage. Blood samples were collected on days 0, 1, 7, and 14 after the animals had fasted overnight. Plasma concentrations of glucose, glucagon, and amino acids were assayed by the Hormone Assay & Analytical Services Core at Vanderbilt University (Nashville, TN).

[4] = hGCGR.ob/ob mice, 10 mg/kg•day food admixture, 5 weeks
[5] = rhesus, 30 mg/kg once daily, Day 0
[6] = rhesus, 30 mg/kg once daily, Day 1
[7] = rhesus, 30 mg/kg once daily, Day 7
[8] = rhesus, 30 mg/kg once daily, Day 14

COc1ccc2cc(-c3cc(-c4cc(C(F)(F)F)ccc4F)nn3[C@@H](C)c3ccc(C(=O)NCCC(=O)O)cc3)ccc2c1 [GRA1, N-[4-((1S)-1-{3-(2-fluoro-5-trifluoromethylphenyl)-5-[6-methoxynaphth-2-yl]-1H-pyrazol-1-yl}ethyl)benzoyl]-β-alanine]
IC50 [1]: 0.933 µM
IC50 (GLP-1R (GLP-1 receptor)): 7.9 µM
Reduction of hepatic response to glucagon (13C glycogen loss) ([2]; 0.3 µM GRA1 pretreatment): about 50%
Hepatic response to glucagon (13C glycogen loss) ([2]; 1 µM GRA1 pretreatment): completely prevented
Hepatic response to glucagon (13C glycogen loss) ([2]; 3 µM GRA1 pretreatment): completely prevented
concentration at 1 h ([3]; rhesus monkey, plasma, oral, 1 mg/kg, 1 h postdose (glucagon challenge)): 200 nM
half-life ([3]; rhesus monkey, plasma, single oral dose 2 mg/kg, read-out: Apparent plasma terminal half-life (converted)): 6.3 h
Fraction of the dose absorbed ([3]; single oral dose 2 mg/kg): 55%
Route of excretion ([3]; single oral dose 2 mg/kg): nearly all absorbed drug was excreted unchanged via the bile
Hypoglycemia (rhesus monkeys; normoglycemic rhesus, 30 mg/kg once daily, 14 days): not rendered hypoglycemic
Plasma insulin (rhesus monkeys; rhesus, 30 mg/kg once daily (data not shown)): unaffected
Alanine, fasted plasma (rhesus monkeys; [5]): 200 ± 21 µM
Arginine, fasted plasma (rhesus monkeys; [5]): 124 ± 15 µM
Asparagine, fasted plasma (rhesus monkeys; [5]): 61.2 ± 17.8 µM
Aspartic acid, fasted plasma (rhesus monkeys; [5]): 5.3 ± 1.3 µM
Glucagon, fasted plasma (rhesus monkeys; [5]): 381 ± 74 pg/mL
Glucose, fasted plasma (rhesus monkeys; [5]): 85.3 ± 9.4 mg/dL
Glutamic acid, fasted plasma (rhesus monkeys; [5]): 48.1 ± 3.6 µM
Glutamine, fasted plasma (rhesus monkeys; [5]): 597 ± 66 µM
Glycine, fasted plasma (rhesus monkeys; [5]): 300 ± 32 µM
Histidine, fasted plasma (rhesus monkeys; [5]): 121 ± 11 µM
Hydroxyproline, fasted plasma (rhesus monkeys; [5]): 12.9 ± 2.3 µM
Isoleucine, fasted plasma (rhesus monkeys; [5]): 98.2 ± 8.3 µM
Leucine, fasted plasma (rhesus monkeys; [5]): 147 ± 9 µM
Lysine, fasted plasma (rhesus monkeys; [5]): 191 ± 25 µM
Methionine, fasted plasma (rhesus monkeys; [5]): 22.9 ± 2.7 µM
Phenylalanine, fasted plasma (rhesus monkeys; [5]): 47.8 ± 2.4 µM
Proline, fasted plasma (rhesus monkeys; [5]): 118 ± 13 µM
Serine, fasted plasma (rhesus monkeys; [5]): 123 ± 8 µM
Threonine, fasted plasma (rhesus monkeys; [5]): 95.2 ± 5.9 µM
Tyrosine, fasted plasma (rhesus monkeys; [5]): 77.2 ± 6.8 µM
Valine, fasted plasma (rhesus monkeys; [5]): 256 ± 21 µM
Alanine, fasted plasma (rhesus monkeys; [6]): 500 ± 79 µM
Arginine, fasted plasma (rhesus monkeys; [6]): 237 ± 33 µM
Asparagine, fasted plasma (rhesus monkeys; [6]): 42.5 ± 8.3 µM
Aspartic acid, fasted plasma (rhesus monkeys; [6]): 5.6 ± 0.7 µM
Glucagon, fasted plasma (rhesus monkeys; [6]): 921 ± 16 pg/mL
Glucose, fasted plasma (rhesus monkeys; [6]): 63.7 ± 2.7 mg/dL
Glutamic acid, fasted plasma (rhesus monkeys; [6]): 71.9 ± 5.7 µM
Glutamine, fasted plasma (rhesus monkeys; [6]): 986 ± 150 µM
Glycine, fasted plasma (rhesus monkeys; [6]): 533 ± 70 µM
Histidine, fasted plasma (rhesus monkeys; [6]): 153 ± 14 µM
Hydroxyproline, fasted plasma (rhesus monkeys; [6]): 15.4 ± 2.3 µM
Isoleucine, fasted plasma (rhesus monkeys; [6]): 72.4 ± 7.9 µM
Leucine, fasted plasma (rhesus monkeys; [6]): 164 ± 24 µM
Lysine, fasted plasma (rhesus monkeys; [6]): 390 ± 56 µM
Methionine, fasted plasma (rhesus monkeys; [6]): 50.2 ± 10.0 µM
Phenylalanine, fasted plasma (rhesus monkeys; [6]): 52.6 ± 7.0 µM
Proline, fasted plasma (rhesus monkeys; [6]): 326 ± 54 µM
Serine, fasted plasma (rhesus monkeys; [6]): 228 ± 24 µM
Threonine, fasted plasma (rhesus monkeys; [6]): 179.1 ± 25.1 µM
Tyrosine, fasted plasma (rhesus monkeys; [6]): 161.4 ± 26.8 µM
Valine, fasted plasma (rhesus monkeys; [6]): 252 ± 33 µM
Alanine, fasted plasma (rhesus monkeys; [7]): 456 ± 68 µM
Arginine, fasted plasma (rhesus monkeys; [7]): 341 ± 76 µM
Asparagine, fasted plasma (rhesus monkeys; [7]): 54.2 ± 10.8 µM
Aspartic acid, fasted plasma (rhesus monkeys; [7]): 6.7 ± 1.2 µM
Glucagon, fasted plasma (rhesus monkeys; [7]): 874 ± 101 pg/mL
Glucose, fasted plasma (rhesus monkeys; [7]): 69.2 ± 4.9 mg/dL
Glutamic acid, fasted plasma (rhesus monkeys; [7]): 98.9 ± 15.2 µM
Glutamine, fasted plasma (rhesus monkeys; [7]): 1186 ± 164 µM
Glycine, fasted plasma (rhesus monkeys; [7]): 558 ± 74 µM
Histidine, fasted plasma (rhesus monkeys; [7]): 170 ± 15 µM
Hydroxyproline, fasted plasma (rhesus monkeys; [7]): 23.3 ± 5.3 µM
Isoleucine, fasted plasma (rhesus monkeys; [7]): 88.6 ± 8.2 µM
Leucine, fasted plasma (rhesus monkeys; [7]): 215 ± 44 µM
Lysine, fasted plasma (rhesus monkeys; [7]): 340 ± 71 µM
Methionine, fasted plasma (rhesus monkeys; [7]): 36.1 ± 5.6 µM
Phenylalanine, fasted plasma (rhesus monkeys; [7]): 49.7 ± 3.3 µM
Proline, fasted plasma (rhesus monkeys; [7]): 490 ± 95 µM
Serine, fasted plasma (rhesus monkeys; [7]): 256 ± 41 µM
Threonine, fasted plasma (rhesus monkeys; [7]): 160.9 ± 21.3 µM
Tyrosine, fasted plasma (rhesus monkeys; [7]): 110.6 ± 7.9 µM
Valine, fasted plasma (rhesus monkeys; [7]): 260 ± 17 µM
Alanine, fasted plasma (rhesus monkeys; [8]): 361 ± 51 µM
Arginine, fasted plasma (rhesus monkeys; [8]): 282 ± 54 µM
Asparagine, fasted plasma (rhesus monkeys; [8]): 33.8 ± 4.8 µM
Aspartic acid, fasted plasma (rhesus monkeys; [8]): 5.9 ± 0.8 µM
Glucagon, fasted plasma (rhesus monkeys; [8]): 984 ± 186 pg/mL
Glucose, fasted plasma (rhesus monkeys; [8]): 69.2 ± 3.8 mg/dL
Glutamic acid, fasted plasma (rhesus monkeys; [8]): 91.9 ± 10.0 µM
Glutamine, fasted plasma (rhesus monkeys; [8]): 1151 ± 191 µM
Glycine, fasted plasma (rhesus monkeys; [8]): 531 ± 76 µM
Histidine, fasted plasma (rhesus monkeys; [8]): 187 ± 21 µM
Hydroxyproline, fasted plasma (rhesus monkeys; [8]): 15.3 ± 2.3 µM
Isoleucine, fasted plasma (rhesus monkeys; [8]): 89.6 ± 7.8 µM
Leucine, fasted plasma (rhesus monkeys; [8]): 218 ± 36 µM
Lysine, fasted plasma (rhesus monkeys; [8]): 375 ± 70 µM
Methionine, fasted plasma (rhesus monkeys; [8]): 34.7 ± 6.3 µM
Phenylalanine, fasted plasma (rhesus monkeys; [8]): 51.5 ± 1.8 µM
Proline, fasted plasma (rhesus monkeys; [8]): 415 ± 84 µM
Serine, fasted plasma (rhesus monkeys; [8]): 217 ± 28 µM
Threonine, fasted plasma (rhesus monkeys; [8]): 155.3 ± 23.3 µM
Tyrosine, fasted plasma (rhesus monkeys; [8]): 105.8 ± 9.9 µM
Valine, fasted plasma (rhesus monkeys; [8]): 276 ± 20 µM
Increase of plasma glucagon relative to vehicle-treated controls (rhesus monkeys; rhesus, 30 mg/kg once daily, both Day 1 and Day 7): approximately 3 fold
Mean GRA1 plasma concentration ([4]; 4 PM): 0.77 ± 0.2 µM
Mean GRA1 plasma concentration ([4]; 9AM): 1.7 ± 0.5 µM
